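Dose response: 5 concentrations. Exposure: 48 h. Format: 96-well plates. Endpoint: linear interpolation; highest concentration if not reached. GI50 = concentration required for 50% inhibition of growth. TGI denotes the concentration required for complete inhibition of growth.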
Legend:
Experiment in all cases: NCI-60 cell line screen, 48 h
OVCAR-8 ovarian = tested on: OVCAR-8 ovarian
SF-268 CNS = tested on: SF-268 CNS
SF-295 CNS = tested on: SF-295 CNS
SNB-19 CNS = tested on: SNB-19 CNS
A549 NSCLC = tested on: A549 NSCLC
U251 CNS = tested on: U251 CNS
HCC-2998 colon = tested on: HCC-2998 colon
BT-549 breast = tested on: BT-549 breast
MCF7 breast = tested on: MCF7 breast
MDA-MB-231 breast = tested on: MDA-MB-231 breast

SMILES: CCCCCCCCCCCCCCC(C)CCC(=O)O (configuration not stated)
- TGI (OVCAR-8 ovarian): > 100 µM
- TGI (SF-268 CNS): > 100 µM
- TGI (SF-295 CNS): > 100 µM
- TGI (SNB-19 CNS): > 100 µM
- TGI (A549 NSCLC): > 100 µM
- TGI (U251 CNS): > 100 µM

SMILES: CN(C)c1ccc(O[Si](Oc2ccc(N(C)C)cc2)(Oc2ccc(N(C)C)cc2)Oc2ccc(N(C)C)cc2)cc1
- TGI (OVCAR-8 ovarian): > 100 µM
- TGI (SF-268 CNS): > 100 µM
- TGI (SF-295 CNS): > 100 µM
- TGI (SNB-19 CNS): > 100 µM
- TGI (A549 NSCLC): > 100 µM
- TGI (HCC-2998 colon): > 100 µM
- TGI (U251 CNS): > 100 µM

SMILES: c1ccc2c3c([nH]c2c1)C1C2CCCCN2C(c2ccncc2)N1CC3 (configuration not stated)
- TGI (OVCAR-8 ovarian): > 100 µM
- TGI (SF-295 CNS): > 100 µM
- TGI (SNB-19 CNS): 65.3 µM
- TGI (A549 NSCLC): > 100 µM
- TGI (U251 CNS): > 100 µM

SMILES: COc1ccc2c(c1)[n+](=O)c(C(C)=O)c(C)n2[O-]
- TGI (OVCAR-8 ovarian): > 100 µM
- TGI (SF-268 CNS): > 100 µM
- TGI (SF-295 CNS): > 100 µM
- TGI (SNB-19 CNS): > 100 µM
- TGI (A549 NSCLC): > 100 µM
- TGI (HCC-2998 colon): > 100 µM
- TGI (U251 CNS): > 100 µM

SMILES: COC(=O)c1ccc2[nH]c(O)c(C(=Nc3ccc(N(C)C(=O)CN4CCN(C)CC4)cc3)c3ccccc3)c2c1
- GI50 (OVCAR-8 ovarian): 1.61 µM
- TGI (OVCAR-8 ovarian): 7.1 µM
- GI50 (SF-268 CNS): 1.33 µM
- TGI (SF-268 CNS): 7.94 µM
- GI50 (BT-549 breast): 1.65 µM
- TGI (BT-549 breast): 3.28 µM
- GI50 (SF-295 CNS): 6.34 µM
- TGI (SF-295 CNS): 21 µM
- GI50 (SNB-19 CNS): 2.95 µM
- TGI (SNB-19 CNS): 8.33 µM
- GI50 (MCF7 breast): 0.603 µM
- TGI (MCF7 breast): 2.42 µM
- GI50 (MDA-MB-231 breast): 1.28 µM
- TGI (MDA-MB-231 breast): 3.17 µM
- GI50 (A549 NSCLC): 1.46 µM
- TGI (A549 NSCLC): 5.31 µM
- GI50 (HCC-2998 colon): 3.89 µM
- TGI (HCC-2998 colon): 18.2 µM

SMILES: [Cl-].[Gd+3].[O-]/N=C(\c1ccccc1)c1ccccn1.[O-]/N=C(\c1ccccc1)c1ccccn1.[O-]/N=C(\c1ccccc1)c1ccccn1
- GI50 (OVCAR-8 ovarian): 34.3 µM
- TGI (OVCAR-8 ovarian): > 100 µM
- GI50 (SF-268 CNS): 55.6 µM
- TGI (SF-268 CNS): > 100 µM
- GI50 (SF-295 CNS): 36.6 µM
- TGI (SF-295 CNS): > 100 µM
- GI50 (SNB-19 CNS): 93.2 µM
- TGI (SNB-19 CNS): > 100 µM
- GI50 (A549 NSCLC): 55.2 µM
- TGI (A549 NSCLC): > 100 µM
- GI50 (HCC-2998 colon): 30.7 µM
- TGI (HCC-2998 colon): > 100 µM
- GI50 (U251 CNS): 68.9 µM
- TGI (U251 CNS): > 100 µM

SMILES: CC(=O)[O-].[Mn+3].[O-]c1ccc(Cl)cc1C=NCCN=Cc1cc(Cl)ccc1[O-]
- GI50 (OVCAR-8 ovarian): > 100 µM
- TGI (OVCAR-8 ovarian): > 100 µM
- GI50 (SF-268 CNS): > 100 µM
- TGI (SF-268 CNS): > 100 µM
- GI50 (SF-295 CNS): > 100 µM
- TGI (SF-295 CNS): > 100 µM
- GI50 (SNB-19 CNS): > 100 µM
- TGI (SNB-19 CNS): > 100 µM
- GI50 (A549 NSCLC): > 100 µM
- TGI (A549 NSCLC): > 100 µM
- GI50 (HCC-2998 colon): 66.3 µM
- TGI (HCC-2998 colon): > 100 µM
- GI50 (U251 CNS): > 100 µM
- TGI (U251 CNS): > 100 µM

SMILES: COC(=O)[C@]1(C)CCC[C@]2(C)[C@@H]1CCC13C[C@@H](C=CO1)[C@@H](C)CC32O (some centres not stated)
- GI50 (OVCAR-8 ovarian): > 100 µM
- TGI (OVCAR-8 ovarian): > 100 µM
- GI50 (SF-268 CNS): > 100 µM
- TGI (SF-268 CNS): > 100 µM
- GI50 (BT-549 breast): > 100 µM
- TGI (BT-549 breast): > 100 µM
- GI50 (SF-295 CNS): 27.5 µM
- TGI (SF-295 CNS): 88.7 µM
- GI50 (SNB-19 CNS): > 100 µM
- TGI (SNB-19 CNS): > 100 µM
- GI50 (MCF7 breast): 25.7 µM
- TGI (MCF7 breast): > 100 µM
- GI50 (MDA-MB-231 breast): 65.9 µM
- TGI (MDA-MB-231 breast): > 100 µM
- GI50 (A549 NSCLC): 33.1 µM
- TGI (A549 NSCLC): > 100 µM
- GI50 (U251 CNS): > 100 µM
- TGI (U251 CNS): > 100 µM

SMILES: Cc1nc(-n2nc(-c3ccccc3)cc2-c2ccccc2)sc1C(=O)/C=C/c1ccccc1
- TGI (OVCAR-8 ovarian): > 100 µM
- TGI (SF-268 CNS): > 100 µM
- TGI (SF-295 CNS): > 100 µM
- TGI (SNB-19 CNS): > 100 µM
- TGI (A549 NSCLC): > 100 µM
- TGI (HCC-2998 colon): > 100 µM
- TGI (U251 CNS): > 100 µM

SMILES: N/C(=N\C(N)=N\c1nc2ccccc2s1)c1cnccn1
- GI50 (OVCAR-8 ovarian): 3.11 µM
- TGI (OVCAR-8 ovarian): 26.5 µM
- GI50 (SF-268 CNS): 4.74 µM
- TGI (SF-268 CNS): > 100 µM
- GI50 (BT-549 breast): 3.97 µM
- TGI (BT-549 breast): 96 µM
- GI50 (SF-295 CNS): 3.19 µM
- TGI (SF-295 CNS): 22.6 µM
- GI50 (SNB-19 CNS): 3.57 µM
- TGI (SNB-19 CNS): 41.6 µM
- GI50 (MCF7 breast): 3.16 µM
- TGI (MCF7 breast): > 100 µM
- GI50 (MDA-MB-231 breast): 3.91 µM
- TGI (MDA-MB-231 breast): > 100 µM
- GI50 (U251 CNS): 2.96 µM
- TGI (U251 CNS): 14.9 µM

SMILES: NNC(=O)N/N=C1\CN(c2ccc(Cl)cc2Cl)C(=O)C(=O)C1c1nc2ccccc2o1 (configuration not stated)
- TGI (OVCAR-8 ovarian): > 100 µM
- TGI (SF-268 CNS): > 100 µM
- TGI (SNB-19 CNS): > 100 µM
- TGI (A549 NSCLC): > 100 µM
- TGI (HCC-2998 colon): > 100 µM
- TGI (U251 CNS): > 100 µM

SMILES: O=C1CNN=C(Cn2nc(-c3ccccc3)c3ccccc3c2=O)N1
- TGI (OVCAR-8 ovarian): > 100 µM
- TGI (SF-268 CNS): > 100 µM
- TGI (SF-295 CNS): > 100 µM
- TGI (SNB-19 CNS): > 100 µM
- TGI (A549 NSCLC): > 100 µM
- TGI (HCC-2998 colon): > 100 µM
- TGI (U251 CNS): > 100 µM

SMILES: COc1cc2cc3c(c(O)c2c(O)c1-c1c(OC)cc2cc4c(c(O)c2c1O)C(=O)O[C@H](C)C4)C(=O)O[C@H](C)C3
- GI50 (OVCAR-8 ovarian): 33.5 µM
- TGI (OVCAR-8 ovarian): > 100 µM
- GI50 (SF-268 CNS): 14.1 µM
- TGI (SF-268 CNS): 37.9 µM
- GI50 (SF-295 CNS): 24.5 µM
- TGI (SF-295 CNS): 78.1 µM
- GI50 (SNB-19 CNS): 32.3 µM
- TGI (SNB-19 CNS): 99.2 µM
- GI50 (MDA-MB-231 breast): 16.2 µM
- TGI (MDA-MB-231 breast): 42 µM
- GI50 (A549 NSCLC): 39.3 µM
- TGI (A549 NSCLC): > 100 µM
- GI50 (HCC-2998 colon): 33 µM
- TGI (HCC-2998 colon): > 100 µM
- GI50 (U251 CNS): 19.6 µM
- TGI (U251 CNS): 48.1 µM

SMILES: COc1ccc(-c2cc(-c3ccco3)c(C#N)c(=O)[nH]2)cc1
- TGI (OVCAR-8 ovarian): > 100 µM
- TGI (SF-268 CNS): > 100 µM
- TGI (SF-295 CNS): > 100 µM
- TGI (SNB-19 CNS): > 100 µM
- TGI (A549 NSCLC): > 100 µM
- TGI (HCC-2998 colon): > 100 µM
- TGI (U251 CNS): 40.1 µM

SMILES: O=C(C(=O)c1cc(Br)ccc1O)c1cc(Br)ccc1O
- GI50 (OVCAR-8 ovarian): 7.46 µM
- TGI (OVCAR-8 ovarian): 40.5 µM
- GI50 (SF-268 CNS): 3.41 µM
- TGI (SF-268 CNS): 21.1 µM
- GI50 (SF-295 CNS): 1.98 µM
- TGI (SF-295 CNS): 6.27 µM
- GI50 (SNB-19 CNS): 4.39 µM
- TGI (SNB-19 CNS): > 100 µM
- GI50 (MCF7 breast): 7.34 µM
- TGI (MCF7 breast): > 100 µM
- GI50 (MDA-MB-231 breast): 5.33 µM
- TGI (MDA-MB-231 breast): 23 µM
- GI50 (A549 NSCLC): 4.16 µM
- TGI (A549 NSCLC): 22.3 µM
- GI50 (HCC-2998 colon): 4.75 µM
- TGI (HCC-2998 colon): 18.6 µM
- GI50 (U251 CNS): 2.8 µM
- TGI (U251 CNS): 9.94 µM

SMILES: COC(=O)c1sc(=NC(=S)N2CCCCC2)sc1C(=O)OC
- TGI (OVCAR-8 ovarian): > 100 µM
- TGI (SF-268 CNS): > 100 µM
- TGI (SNB-19 CNS): > 100 µM
- TGI (HCC-2998 colon): > 100 µM
- TGI (U251 CNS): > 100 µM

SMILES: Nc1ccc(C(=O)/C=C/c2ccccc2O)cc1
- TGI (OVCAR-8 ovarian): > 100 µM
- TGI (SF-268 CNS): > 100 µM
- TGI (SF-295 CNS): > 100 µM
- TGI (SNB-19 CNS): > 100 µM
- TGI (A549 NSCLC): > 100 µM
- TGI (HCC-2998 colon): > 100 µM
- TGI (U251 CNS): > 100 µM

SMILES: COc1cc(CCc2ccc(OC(C)=O)cc2)cc(OC)c1OC
- TGI (OVCAR-8 ovarian): > 100 µM
- TGI (SF-268 CNS): > 100 µM
- TGI (SF-295 CNS): > 100 µM
- TGI (SNB-19 CNS): > 100 µM
- TGI (A549 NSCLC): > 100 µM
- TGI (U251 CNS): > 100 µM

SMILES: CCOc1ccc(Nc2nc(-c3c(C)nc4ncccn34)cs2)cc1
- GI50 (OVCAR-8 ovarian): 0.0401 µM
- TGI (OVCAR-8 ovarian): 15.9 µM
- GI50 (SF-268 CNS): 1.53 µM
- TGI (SF-268 CNS): 19.5 µM
- GI50 (BT-549 breast): 0.0268 µM
- TGI (BT-549 breast): 14.9 µM
- GI50 (SF-295 CNS): < 0.01 µM
- TGI (SF-295 CNS): 15.3 µM
- GI50 (SNB-19 CNS): 0.0538 µM
- TGI (SNB-19 CNS): 23.5 µM
- GI50 (MCF7 breast): 0.412 µM
- TGI (MCF7 breast): 14.9 µM
- GI50 (MDA-MB-231 breast): 0.0797 µM
- TGI (MDA-MB-231 breast): 22.6 µM
- GI50 (A549 NSCLC): 0.0268 µM
- TGI (A549 NSCLC): 20.5 µM
- GI50 (HCC-2998 colon): 0.0522 µM
- TGI (HCC-2998 colon): 15.7 µM
